The source of these data is PMC6017000, “Distribution Assessments of Coumarins from Angelicae Pubescentis Radix in Rat Cerebrospinal Fluid and Brain by Liquid Chromatography Tandem Mass Spectrometry Analysis” (Molecules : A Journal of Synthetic Chemistry and Natural …, 2018).

Broadly, the AUC(0-inf) is total exposure, with the tail of the curve extrapolated. As usually defined, the AUC(0-t) is the area under the concentration-time curve up to a stated or last time point. A higher AUC(0-t) goes with high exposure. Usually Cmax stands for the peak of the concentration-time curve. As a reminder, the Tmax is the time from dosing to the highest level. Usually half-life stands for the time needed for the level to fall by half in the phase considered. Low readings indicate rapid decline, high ones slow decline. In general, Kp refers to the ratio of the level in a tissue or fluid to that in plasma or blood.

Where only a bound is given, the exact number is not on record here.

One data set is described as follows: Stability of QC samples in aCSF (freeze-thaw, room temperature). Type of data set: physicochemical. The note with it: aCSF QC 10 ng/mL, room temperature 24 h, percentage remaining, n = 5.
`O=c1ccc2cc3ccoc3cc2o1` [Compound 1, psoralen] showed a Stability room temperature of 97.19±5.40%.

Staying with this data set, now noted: aCSF QC 10 ng/mL, three freeze-thaw cycles, percentage remaining, n = 5.
Consider `O=c1ccc2cc3ccoc3cc2o1` [Compound 1, psoralen], for which the “Stability Freeze-thaw” value is on record as 96.14±6.21%.

The same data set, now with this note: aCSF QC 40 ng/mL, room temperature 24 h, percentage remaining, n = 5.
`O=c1ccc2cc3ccoc3cc2o1` [Compound 1, psoralen]: the Stability room temperature came out at 98.36±3.57%.

Still in this data set, the particulars now being: aCSF QC 40 ng/mL, three freeze-thaw cycles, percentage remaining, n = 5.
On to `O=c1ccc2cc3ccoc3cc2o1` [Compound 1, psoralen], for which the “Stability Freeze-thaw” value is 96.98±5.79%.

The same data set, now with this note: aCSF QC 80 ng/mL, room temperature 24 h, percentage remaining, n = 5.
`O=c1ccc2cc3ccoc3cc2o1` [Compound 1, psoralen] displayed a Stability room temperature of 94.12±6.94%.

The data set is the same for the next values; noted with them: aCSF QC 80 ng/mL, three freeze-thaw cycles, percentage remaining, n = 5.
For `O=c1ccc2cc3ccoc3cc2o1` [Compound 1, psoralen], the “Stability Freeze-thaw” value is listed as 86.27±13.45%.

Another data set can be described thus: Rat CSF distribution after oral administration of APRE (UPLC-MS/MS). The note with it: (0.48 × AUC0→∞/CSF)/(16 × AUC0→∞/plasma), rat, oral APRE.
Method: Aliquots of 50 μL CSF samples with IS (10 μL, 200 ng/mL) were extracted with 600 μL ethyl acetate.
The UPLC-MS/MS system consisted of a Shimadzu Nexera UPLC instrument connected to a Shimadzu LCMS-8050 mass spectrometer via the electrospray ionization interface (Shimadzu Corp., Kyoto, Japan). Samples were separated on an ACQUITY UPLC BEH RP18 column (2.1 × 100 mm, 1.7 µm, Waters, Milford, MA, USA) equipped with a BEH RP18 guard column (2.1 × 5 mm, 1.7 µm, Waters, Milford, MA, USA). The column temperature was 30 °C, and the flow rate was 0.4 mL/min. The sample injection volume was 5 µL. The mobile phases consisted of 0.1% (v/v) formic acid in water (A) and ACN (B). […] The precursor ion, product ion, Q1, Q3, CE and DT were optimized.
(§1) The time schedule included 9 time-points, and six rats were sampled at each time-point. The rats were fasted overnight with free access to water before the experiment. APRE was suspended with the normal saline and orally administered to the rats at a single dose of 4 g/kg. The animals had free access to water during the experiment.
Rats were anesthetized by an intraperitoneal dose of chloral hydrate (350 mg/kg) at 0.25, 0.5, 1, 1.5, 2, 4, 6, 8, 12 h after oral administration of APRE. A dorsal midline cutaneous incision was made, and the muscle at the craniocervical junction was bluntly dissected to expose the atlanto-occipital membrane. The cisterna magna was punctured with a thin syringe needle, and a microinjector connected with the needle was used to collect the interior CSF carefully [27]. Clear CSF was transferred to a clean microtube and frozen at −80 °C until further use. Blood contaminated samples were excluded.
(§2) Results were expressed as the mean ± standard deviation (SD). The UPLC-MS/MS data were processed with Labsolutions 5.65 software (Shimadzu Corp., Kyoto, Japan). The pharmacokinetic parameters were calculated with the Drug and Statistics 2.0 software (Mathematical Pharmacology Professional Committee of China, Shanghai, China).
In the case of `O=c1ccc2cc3ccoc3cc2o1` [Compound 1, psoralen], the “total amount percentage of CSF/plasma” value is “greater than 1%”.

The data set is the same for the next values; noted with them: rat CSF after oral APRE.
For `C/C=C(/C)C(=O)OC(C)(C)[C@@H]1Cc2c(ccc3ccc(=O)oc23)O1` [Compound 7, columbianadin], the “MRM response in CSF” value was “under LLOQ”.

For `O=c1ccc2c(O)c3ccoc3cc2o1` [bergaptol], the “MRM response in CSF” value was “under LLOQ”.

Consider `O=c1ccc2ccc(O)cc2o1` [umbelliferone], for which the “MRM response in CSF” value was “under LLOQ”.

Still in this data set, the particulars now being: rat, CSF, po, 4 g/kg.
For `O=c1ccc2cc3ccoc3cc2o1` [Compound 1, psoralen], the AUC(0-inf) amounted to 51.3 ± 17.5 ng·h/mL, the area under the curve AUC(0-t) stood at 20.4 ± 6.16 ng·h/mL, the highest level (Cmax) was 4.49 ± 1.05 ng/mL and the Tmax stood at 4.67 ± 1.63 h. Besides, the half-life is 3.52 ± 2.04 h.

The nature of a further data set: Stability of QC samples in rat brain homogenate (freeze-thaw, room temperature). Type of data set: physicochemical. Conditions: rat brain QC 10 ng/mL, room temperature 24 h, percentage remaining, n = 5.
Take `O=c1ccc2cc3ccoc3cc2o1` [Compound 1, psoralen]: the Stability room temperature was 101.36±7.46%.

`C/C=C(/C)C(=O)OC(C)(C)[C@@H]1Cc2c(ccc3ccc(=O)oc23)O1` [Compound 7, columbianadin] showed a Stability room temperature of 96.82±4.84%.

The data set is the same for the next values; noted with them: rat brain QC 10 ng/mL, three freeze-thaw cycles, percentage remaining, n = 5.
Consider `O=c1ccc2cc3ccoc3cc2o1` [Compound 1, psoralen], for which the “Stability Freeze-thaw” value was determined as 97.11±8.58%.

Regarding `C/C=C(/C)C(=O)OC(C)(C)[C@@H]1Cc2c(ccc3ccc(=O)oc23)O1` [Compound 7, columbianadin], the “Stability Freeze-thaw” value was found to be 101.64±6.63%.

The same data set, now with this note: rat brain QC 80 ng/mL, room temperature 24 h, percentage remaining, n = 5.
`O=c1ccc2cc3ccoc3cc2o1` [Compound 1, psoralen] showed a Stability room temperature of 99.53±12.87%.

`C/C=C(/C)C(=O)OC(C)(C)[C@@H]1Cc2c(ccc3ccc(=O)oc23)O1` [Compound 7, columbianadin] displayed a Stability room temperature of 92.73±3.53%.

Staying with this data set, now noted: rat brain QC 80 ng/mL, three freeze-thaw cycles, percentage remaining, n = 5.
With `O=c1ccc2cc3ccoc3cc2o1` [Compound 1, psoralen], the “Stability Freeze-thaw” value worked out at 96.22±7.77%.

As to `C/C=C(/C)C(=O)OC(C)(C)[C@@H]1Cc2c(ccc3ccc(=O)oc23)O1` [Compound 7, columbianadin], the “Stability Freeze-thaw” value turned out to be 94.79±6.28%.

Staying with this data set, now noted: rat brain QC 160 ng/mL, room temperature 24 h, percentage remaining, n = 5.
In turn, `O=c1ccc2cc3ccoc3cc2o1` [Compound 1, psoralen] yielded a Stability room temperature of 96.99±3.28%.

`C/C=C(/C)C(=O)OC(C)(C)[C@@H]1Cc2c(ccc3ccc(=O)oc23)O1` [Compound 7, columbianadin]: the Stability room temperature is recorded as 91.16±4.37%.

Staying with this data set, now noted: rat brain QC 160 ng/mL, three freeze-thaw cycles, percentage remaining, n = 5.
As for `O=c1ccc2cc3ccoc3cc2o1` [Compound 1, psoralen], the “Stability Freeze-thaw” value was 96.30±8.22%.

As to `C/C=C(/C)C(=O)OC(C)(C)[C@@H]1Cc2c(ccc3ccc(=O)oc23)O1` [Compound 7, columbianadin], the “Stability Freeze-thaw” value is reported as 90.93±4.84%.

A short description of another data set: Rat brain distribution after oral administration of APRE (UPLC-MS/MS). The note with it: rat brain after oral APRE.
Method: Each weighed brain sample was homogenized with a 2-fold volume of normal saline solution. IS solution (10 μL, 200 ng/mL) was added to 300 μL of the homogenate. The mixture was then extracted with a 3-fold volume of ethyl acetate. The mixture was vortexed for 1 min and centrifuged at 16,000× g for 10 min. The supernatant was transferred out and dried under a gentle constant flow of nitrogen. The residue was then dissolved with 100 μL of MeOH and ultrasonically (power 250 W, frequency 40 KHz) extracted for 10 min. After centrifugation at 16,000× g for 10 min, the supernatant was drawn out into a clean vial, and 5 μL of each were injected into the UPLC–MS/MS system for analysis.
The UPLC-MS/MS system consisted of a Shimadzu Nexera UPLC instrument connected to a Shimadzu LCMS-8050 mass spectrometer via the electrospray ionization interface (Shimadzu Corp., Kyoto, Japan). Samples were separated on an ACQUITY UPLC BEH RP18 column (2.1 × 100 mm, 1.7 µm, Waters, Milford, MA, USA) equipped with a BEH RP18 guard column (2.1 × 5 mm, 1.7 µm, Waters, Milford, MA, USA). The column temperature was 30 °C, and the flow rate was 0.4 mL/min. The sample injection volume was 5 µL. The mobile phases consisted of 0.1% (v/v) formic acid in water (A) and ACN (B). The LC gradient elution program and mass working parameters were the same as our previous report [6]. […] The precursor ion, product ion, Q1, Q3, CE and DT were optimized.
as §1
Cardiac perfusion was carried out quickly with physiological saline after CSF collection at each time-point. The rat brains were separated, weighed and then stored at −80 °C until treatment.
as §2
In the case of `O=c1ccc2c(O)c3ccoc3cc2o1` [bergaptol], the “MRM response in brain” value was “under LLOQ”.

Consider `O=c1ccc2ccc(O)cc2o1` [umbelliferone], for which the “MRM response in brain” value was “under LLOQ”.

Still in this data set, the particulars now being: rat brain after oral APRE; MRM response under LLOQ at following time points.
Turning to `C/C=C(/C)C(=O)OC(C)(C)[C@@H]1Cc2c(ccc3ccc(=O)oc23)O1` [Compound 7, columbianadin], the “time after oral administration within which detected in brain” value was no more than 4 h.

Still in this data set, the particulars now being: rat brain, oral APRE 4 g/kg, mean ± SD, n = 6.
As for `O=c1ccc2cc3ccoc3cc2o1` [Compound 1, psoralen], the AUC0→t came out at 351.63 ± 65.06 µg·h/kg, the “AUC0→∞” value came to 371.95 ± 69.76 µg·h/kg, the CLz/F is recorded as 2.88 ± 0.58 g/h/kg and the Vz/F came out at 8.86 ± 3.08 g/kg.

The data set is the same for the next values; noted with them: rat, brain, po, 4 g/kg.
Turning to `O=c1ccc2cc3ccoc3cc2o1` [Compound 1, psoralen], the Tmax was 0.33 ± 0.13 h and the half-life was 2.15 ± 0.67 h.

Still in this data set, the particulars now being: rat, brain/plasma, po, 4 g/kg.
As to `O=c1ccc2cc3ccoc3cc2o1` [Compound 1, psoralen], the concentration ratio (Kp) was found to be 0.56.
